Laboratory results as given in ChEMBL document CHEMBL3739415, “Synthesis of functionalized new conjugates of batracylin with tuftsin/retro-tuftsin derivatives and their biological evaluation” (Eur J Med Chem, 2015).
pIC50: −log10 of the molar value. The source made the active and inactive calls. The calls are words filed in the database; no cut-off is given here. Non-standard residues stand in square brackets, D forms with d. Residues, ends and D or L forms follow the SMILES beside them. *: point of attachment. Batracylin(8-NH) = O=C1c2ccccc2C2=Nc3ccc(N*)cc3CN12; Arg(NO2) = N=C(NCCC[C@H](N)C(=O)O)N[N+](=O)[O-]

Assays:
[1] = Cytotoxicity against human HL60 cells after 120 hrs by MTT assay; format: functional, cell-based; details: HL-60, 120 h
[2] = target: DNA topoisomerase 2-alpha (Homo sapiens) (UniProt P11388); test: Inhibition of human topoisomerase-2alpha-mediated relaxation of supercoiled plasmid pBR322 DNA after 30 mins by ethidium bromide staining
Sequence of DNA topoisomerase 2-alpha (Homo sapiens) (P11388 whole entry): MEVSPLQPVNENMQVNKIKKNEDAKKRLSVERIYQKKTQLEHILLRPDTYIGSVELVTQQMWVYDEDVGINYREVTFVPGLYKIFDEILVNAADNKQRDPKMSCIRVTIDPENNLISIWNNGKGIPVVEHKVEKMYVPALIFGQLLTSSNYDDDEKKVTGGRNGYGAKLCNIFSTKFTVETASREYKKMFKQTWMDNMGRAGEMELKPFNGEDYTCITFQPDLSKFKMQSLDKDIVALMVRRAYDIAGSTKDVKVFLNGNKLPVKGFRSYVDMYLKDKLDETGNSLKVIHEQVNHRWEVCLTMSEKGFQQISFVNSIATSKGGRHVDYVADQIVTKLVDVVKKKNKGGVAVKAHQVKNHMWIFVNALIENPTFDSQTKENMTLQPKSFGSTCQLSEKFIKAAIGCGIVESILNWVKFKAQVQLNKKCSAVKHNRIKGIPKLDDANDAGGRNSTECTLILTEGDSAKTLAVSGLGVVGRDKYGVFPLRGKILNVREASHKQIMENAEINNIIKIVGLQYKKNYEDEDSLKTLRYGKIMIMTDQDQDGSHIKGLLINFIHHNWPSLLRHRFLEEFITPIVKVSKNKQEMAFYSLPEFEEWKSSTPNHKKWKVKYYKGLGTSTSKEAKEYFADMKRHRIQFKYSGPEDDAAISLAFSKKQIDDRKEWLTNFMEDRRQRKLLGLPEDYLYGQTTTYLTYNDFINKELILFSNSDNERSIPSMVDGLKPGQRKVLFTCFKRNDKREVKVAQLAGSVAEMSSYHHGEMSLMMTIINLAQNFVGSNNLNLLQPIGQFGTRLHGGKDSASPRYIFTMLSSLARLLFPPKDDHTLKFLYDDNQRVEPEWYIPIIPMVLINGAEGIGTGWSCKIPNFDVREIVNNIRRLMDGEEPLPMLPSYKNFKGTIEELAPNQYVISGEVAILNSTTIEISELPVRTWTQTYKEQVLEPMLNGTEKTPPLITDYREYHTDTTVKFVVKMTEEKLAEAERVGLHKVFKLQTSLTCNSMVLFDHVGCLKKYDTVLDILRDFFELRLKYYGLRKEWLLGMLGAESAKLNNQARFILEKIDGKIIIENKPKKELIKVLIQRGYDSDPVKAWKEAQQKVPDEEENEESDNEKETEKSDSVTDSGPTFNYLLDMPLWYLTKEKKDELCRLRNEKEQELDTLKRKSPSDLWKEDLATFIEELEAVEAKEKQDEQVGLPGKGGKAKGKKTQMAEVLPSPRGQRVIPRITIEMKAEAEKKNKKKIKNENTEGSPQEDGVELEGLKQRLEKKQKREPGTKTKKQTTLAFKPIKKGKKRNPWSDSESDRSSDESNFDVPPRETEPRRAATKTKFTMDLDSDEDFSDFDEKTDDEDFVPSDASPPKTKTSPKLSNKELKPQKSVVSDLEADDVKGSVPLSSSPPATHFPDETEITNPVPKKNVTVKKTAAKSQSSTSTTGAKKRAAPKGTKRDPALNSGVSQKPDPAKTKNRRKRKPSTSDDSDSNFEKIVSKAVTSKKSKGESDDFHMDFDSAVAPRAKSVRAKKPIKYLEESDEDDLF

A549 [3] = test: Cytotoxicity against human A549 cells after 120 hrs by MTT assay; format: functional, cell-based; details: A549, 120 h
HL-60 [4] = test: Ratio of BAT IC50 to compound IC50 for human HL60 cells after 120 hrs by MTT assay; format: functional
A549 [5] = test: Ratio of BAT IC50 to compound IC50 for human A549 cells after 120 hrs by MTT assay; format: functional
[6] = target: T1, DNA topoisomerase 1 (Homo sapiens) (UniProt P11387); test: Inhibition of human topoisomerase-1-mediated relaxation of supercoiled plasmid pBR322 DNA at 1 to 100 uM after 30 mins by ethidium bromide staining
T1 sequence (whole entry): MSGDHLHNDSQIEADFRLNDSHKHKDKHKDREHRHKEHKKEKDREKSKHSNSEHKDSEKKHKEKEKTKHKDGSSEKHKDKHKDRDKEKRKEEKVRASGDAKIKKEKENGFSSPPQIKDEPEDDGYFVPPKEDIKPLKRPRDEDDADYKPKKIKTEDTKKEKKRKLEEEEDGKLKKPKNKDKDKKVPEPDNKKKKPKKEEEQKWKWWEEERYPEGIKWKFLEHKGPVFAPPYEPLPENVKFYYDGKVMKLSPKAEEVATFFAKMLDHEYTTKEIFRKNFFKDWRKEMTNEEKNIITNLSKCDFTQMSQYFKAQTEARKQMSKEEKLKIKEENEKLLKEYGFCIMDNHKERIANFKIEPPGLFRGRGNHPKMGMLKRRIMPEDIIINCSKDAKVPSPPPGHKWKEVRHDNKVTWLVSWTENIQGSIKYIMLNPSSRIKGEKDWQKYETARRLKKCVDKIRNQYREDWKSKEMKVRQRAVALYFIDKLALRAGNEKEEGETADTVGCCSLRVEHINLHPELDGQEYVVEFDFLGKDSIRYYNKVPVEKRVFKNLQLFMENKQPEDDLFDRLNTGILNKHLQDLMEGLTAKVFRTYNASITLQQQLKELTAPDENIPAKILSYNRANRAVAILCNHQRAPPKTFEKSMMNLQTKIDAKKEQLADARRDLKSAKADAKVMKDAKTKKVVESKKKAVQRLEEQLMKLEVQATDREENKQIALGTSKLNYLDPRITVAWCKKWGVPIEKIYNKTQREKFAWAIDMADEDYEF

HL-60 [7] = test: Induction of apoptosis in human HL60 cells assessed as micronucleated cells at IC90 up to 120 hrs using Hoechst-33342 staining by fluorescent microscope analysis relative to BAT; format: functional, cell-based
HL-60 [8] = test: Induction of apoptosis in human HL60 cells assessed as increase of debris fraction at IC90 up to 120 hrs using Hoechst-33342 staining by fluorescent microscope analysis relative to BAT; format: functional, cell-based
[9] = Cell cycle arrest in human HL60 cells assessed as accumulation at G2/M phase at IC90 after 24 to 120 hrs using propidium iodide staining by flow cytometry analysis; format: functional, cell-based; details: HL-60
A549 [10] = test: Cell cycle arrest in human A549 cells assessed as accumulation at G2/M phase at IC90 after 120 hrs using propidium iodide staining by flow cytometry analysis; format: functional, cell-based
A549 [11] = test: Cell cycle arrest in human A549 cells assessed as accumulation at G2/M phase at IC90 after 24 hrs using propidium iodide staining by flow cytometry analysis; format: functional, cell-based
HL-60 [12] = test: Induction of apoptosis in human HL60 cells assessed as fraction of polyploid cells at IC90 up to 120 hrs using Hoechst-33342 staining by fluorescent microscope analysis relative to BAT; format: functional, cell-based
[13] = Cell cycle arrest in human HL60 cells assessed as abnormal mitotic figures at IC90 after 24 to 120 hrs using propidium iodide staining by flow cytometry analysis; format: functional, cell-based; details: HL-60
A549 [14] = test: Induction of DNA damage in human A549 cells assessed as phosphorylation of H2AX histone at IC90 after 3 hrs by fluorescence microscopy; format: functional, cell-based
A549 [15] = test: Induction of apoptosis in human A549 cells assessed as change in nuclear and cellular morphology at IC90 up to 120 hrs using Hoechst-33342 staining by fluorescent microscope analysis; format: functional, cell-based
A549 [16] = test: Induction of apoptosis in human A549 cells assessed as increase of debris fraction at IC90 up to 120 hrs using Hoechst-33342 staining by fluorescent microscope analysis relative to BAT; format: functional
L1210 = test: Cytotoxicity against mouse L1210 cells after 120 hrs by MTT assay; format: functional, cell-based; details: L1210, 120 h
[17] = Cytotoxicity against mouse NIH/3T3 cells after 120 hrs by MTT assay; format: functional, cell-based; details: NIH3T3, 120 h
P388 = test: Cytotoxicity against mouse P388 cells after 120 hrs by MTT assay; format: functional, cell-based; details: P388, 120 h
[18] = Cytotoxicity against mouse WEHI1640 cells after 120 hrs by MTT assay; format: functional, cell-based; details: WEHI1640, 120 h
LNCaP = test: Cytotoxicity against human LNCAP cells after 120 hrs by MTT assay; format: functional, cell-based
[19] = Cytotoxicity against human HCT116 cells after 120 hrs by MTT assay; format: functional, cell-based; details: HCT-116, 120 h
MCF7 = test: Cytotoxicity against human MCF7 cells after 120 hrs by MTT assay; format: functional, cell-based; details: MCF7, 120 h
HT-29 = test: Cytotoxicity against human HT-29 cells after 120 hrs by MTT assay; format: functional, cell-based; details: HT-29, 120 h

CC[C@H](C)[C@H](N)C(=O)NCCCC[C@H](NC(=O)[C@@H]1CCCN1C(=O)[C@@H](N)CCCNC(=N)N[N+](=O)[O-])C(=O)N[C@H](C(=O)Nc1ccc2c(c1)CN1C(=O)c3ccccc3C1=N2)[C@@H](C)O (H-[Arg(NO2)]PK(Ile)T-{Batracylin(8-NH)})
pIC50 [1]: 5.33
inhibition [2]: Dose-dependent effect
pIC50 (A549 [3]): 5.32
Ratio IC50 (HL-60 [4]): >=10
Ratio IC50 (A549 [5]): >=10
inhibition [6]: inactive

CC(C)C[C@H](N)C(=O)NCCCC[C@H](NC(=O)[C@@H]1CCCN1C(=O)[C@@H](N)CCCNC(=N)N[N+](=O)[O-])C(=O)N[C@H](C(=O)Nc1ccc2c(c1)CN1C(=O)c3ccccc3C1=N2)[C@@H](C)O (H-[Arg(NO2)]PK(Leu)T-{Batracylin(8-NH)})
Activity (HL-60 [7]): Active
pIC50 [1]: 5.28
Activity (HL-60 [8]): Active
inhibition [2]: Dose-dependent effect
Activity [9]: inactive
pIC50 (A549 [3]): 5.40
Activity (A549 [10]): Active
Activity (A549 [11]): Active
Ratio IC50 (HL-60 [4]): >=10
Activity (HL-60 [12]): Active
Activity [13]: Active
Ratio IC50 (A549 [5]): >=10
inhibition [6]: inactive
Activity (A549 [14]): Active
Activity (A549 [15]): inactive

C[C@H](N)C(=O)NCCCC[C@H](NC(=O)[C@@H]1CCCN1C(=O)[C@@H](N)CCCNC(=N)N[N+](=O)[O-])C(=O)N[C@H](C(=O)Nc1ccc2c(c1)CN1C(=O)c3ccccc3C1=N2)[C@@H](C)O (H-[Arg(NO2)]PK(Ala)T-{Batracylin(8-NH)})
pIC50 [1]: 4.95
pIC50 (A549 [3]): 5.25

C[C@H](N)C(=O)NCCCC[C@H](NC(=O)[C@@H](N)[C@@H](C)O)C(=O)N1CCC[C@H]1C(=O)N[C@@H](CCCNC(=N)N[N+](=O)[O-])C(=O)Nc1ccc2c(c1)CN1C(=O)c3ccccc3C1=N2 (H-TK(Ala)P[Arg(NO2)]-{Batracylin(8-NH)})
pIC50 [1]: 4.71
pIC50 (A549 [3]): 5.23

CC(C)[C@H](N)C(=O)NCCCC[C@H](NC(=O)[C@@H](N)[C@@H](C)O)C(=O)N1CCC[C@H]1C(=O)N[C@@H](CCCNC(=N)N[N+](=O)[O-])C(=O)Nc1ccc2c(c1)CN1C(=O)c3ccccc3C1=N2 (H-TK(Val)P[Arg(NO2)]-{Batracylin(8-NH)})
pIC50 [1]: < 4.00
pIC50 (A549 [3]): < 4.00

C[C@@H](O)[C@H](N)C(=O)N[C@@H](CCCCN)C(=O)N1CCC[C@H]1C(=O)N[C@@H](CCCNC(=N)N[N+](=O)[O-])C(=O)Nc1ccc2c(c1)CN1C(=O)c3ccccc3C1=N2 (H-TKP[Arg(NO2)]-{Batracylin(8-NH)})
Activity (HL-60 [7]): Active
pIC50 [1]: 4.11
Activity (HL-60 [8]): Active
Activity [9]: inactive
fold change (FC) (A549 [16]): 3.5
pIC50 (A549 [3]): 4.28
Activity (A549 [10]): Active
Activity (A549 [11]): Active
Activity (HL-60 [12]): Active
Activity [13]: Active
Activity (A549 [14]): Active
Activity (A549 [15]): inactive

C[C@@H](O)[C@H](NC(=O)[C@H](CCCCNC(=O)CN)NC(=O)[C@@H]1CCCN1C(=O)[C@@H](N)CCCNC(=N)N[N+](=O)[O-])C(=O)Nc1ccc2c(c1)CN1C(=O)c3ccccc3C1=N2 (H-[Arg(NO2)]PK(Gly)T-{Batracylin(8-NH)})
pIC50 [1]: 4.54
pIC50 (A549 [3]): < 4.00

CC[C@H](C)[C@H](N)C(=O)NCCCC[C@H](NC(=O)[C@@H](N)[C@@H](C)O)C(=O)N1CCC[C@H]1C(=O)N[C@@H](CCCNC(=N)N[N+](=O)[O-])C(=O)Nc1ccc2c(c1)CN1C(=O)c3ccccc3C1=N2 (H-TK(Ile)P[Arg(NO2)]-{Batracylin(8-NH)})
pIC50 [1]: 4.81
inhibition [2]: Dose-dependent effect
pIC50 (A549 [3]): 4.76
inhibition [6]: inactive

C[C@@H](O)[C@H](NC(=O)[C@H](CCCCN)NC(=O)[C@@H]1CCCN1C(=O)[C@@H](N)CCCNC(=N)N[N+](=O)[O-])C(=O)Nc1ccc2c(c1)CN1C(=O)c3ccccc3C1=N2 (H-[Arg(NO2)]PKT-{Batracylin(8-NH)})
pIC50 [1]: 4.51
pIC50 (A549 [3]): 5.06
Ratio IC50 (HL-60 [4]): 2
Ratio IC50 (A549 [5]): 5

C[C@@H](O)[C@H](N)C(=O)N[C@@H](CCCCNC(=O)CN)C(=O)N1CCC[C@H]1C(=O)N[C@@H](CCCNC(=N)N[N+](=O)[O-])C(=O)Nc1ccc2c(c1)CN1C(=O)c3ccccc3C1=N2 (H-TK(Gly)P[Arg(NO2)]-{Batracylin(8-NH)})
pIC50 [1]: < 4.00
pIC50 (A549 [3]): < 4.00

CC(C)[C@H](N)C(=O)NCCCC[C@H](NC(=O)[C@@H]1CCCN1C(=O)[C@@H](N)CCCNC(=N)N[N+](=O)[O-])C(=O)N[C@H](C(=O)Nc1ccc2c(c1)CN1C(=O)c3ccccc3C1=N2)[C@@H](C)O (H-[Arg(NO2)]PK(Val)T-{Batracylin(8-NH)})
pIC50 [1]: 4.96
pIC50 (A549 [3]): 4.88

CC(C)C[C@H](N)C(=O)NCCCC[C@H](NC(=O)[C@@H](N)[C@@H](C)O)C(=O)N1CCC[C@H]1C(=O)N[C@@H](CCCNC(=N)N[N+](=O)[O-])C(=O)Nc1ccc2c(c1)CN1C(=O)c3ccccc3C1=N2 (H-TK(Leu)P[Arg(NO2)]-{Batracylin(8-NH)})
pIC50 [1]: 4.08
inhibition [2]: Dose-dependent effect
pIC50 (A549 [3]): < 4.00
inhibition [6]: inactive

Nc1ccc2c(c1)CN1C(=O)c3ccccc3C1=N2 [DANIQUIDONE]
Activity (HL-60 [7]): Active
pIC50 (L1210): < 4.00
pIC50 [17]: 4.16
pIC50 [1]: 4.18
Activity (HL-60 [8]): Active
inhibition [2]: Dose-dependent effect
Activity [9]: inactive
pIC50 (P388): < 4.00
pIC50 (A549 [3]): 4.33
Activity (A549 [10]): Active
Activity (A549 [11]): Active
Activity (HL-60 [12]): Active
pIC50 [18]: 4.23
Activity [13]: Active
inhibition [6]: inactive
Activity (A549 [14]): Active
pIC50 (LNCaP): 4.04
Activity (A549 [15]): inactive
pIC50 [19]: 4.05
pIC50 (MCF7): < 4.00
pIC50 (HT-29): 4.19
